The values that follow come from US10233191B2, “Fused piperidine amides as modulators of ion channels” (Vertex Pharmaceuticals Incorporated, priority 2013, dated 2019).

The target in the test is T1, NaV 1.7 (Homo sapiens, UniProt Q15858).
T1 construct: expressed in transfected cells; host or cells: HEK cells
T1 sequence (Q15858 whole entry): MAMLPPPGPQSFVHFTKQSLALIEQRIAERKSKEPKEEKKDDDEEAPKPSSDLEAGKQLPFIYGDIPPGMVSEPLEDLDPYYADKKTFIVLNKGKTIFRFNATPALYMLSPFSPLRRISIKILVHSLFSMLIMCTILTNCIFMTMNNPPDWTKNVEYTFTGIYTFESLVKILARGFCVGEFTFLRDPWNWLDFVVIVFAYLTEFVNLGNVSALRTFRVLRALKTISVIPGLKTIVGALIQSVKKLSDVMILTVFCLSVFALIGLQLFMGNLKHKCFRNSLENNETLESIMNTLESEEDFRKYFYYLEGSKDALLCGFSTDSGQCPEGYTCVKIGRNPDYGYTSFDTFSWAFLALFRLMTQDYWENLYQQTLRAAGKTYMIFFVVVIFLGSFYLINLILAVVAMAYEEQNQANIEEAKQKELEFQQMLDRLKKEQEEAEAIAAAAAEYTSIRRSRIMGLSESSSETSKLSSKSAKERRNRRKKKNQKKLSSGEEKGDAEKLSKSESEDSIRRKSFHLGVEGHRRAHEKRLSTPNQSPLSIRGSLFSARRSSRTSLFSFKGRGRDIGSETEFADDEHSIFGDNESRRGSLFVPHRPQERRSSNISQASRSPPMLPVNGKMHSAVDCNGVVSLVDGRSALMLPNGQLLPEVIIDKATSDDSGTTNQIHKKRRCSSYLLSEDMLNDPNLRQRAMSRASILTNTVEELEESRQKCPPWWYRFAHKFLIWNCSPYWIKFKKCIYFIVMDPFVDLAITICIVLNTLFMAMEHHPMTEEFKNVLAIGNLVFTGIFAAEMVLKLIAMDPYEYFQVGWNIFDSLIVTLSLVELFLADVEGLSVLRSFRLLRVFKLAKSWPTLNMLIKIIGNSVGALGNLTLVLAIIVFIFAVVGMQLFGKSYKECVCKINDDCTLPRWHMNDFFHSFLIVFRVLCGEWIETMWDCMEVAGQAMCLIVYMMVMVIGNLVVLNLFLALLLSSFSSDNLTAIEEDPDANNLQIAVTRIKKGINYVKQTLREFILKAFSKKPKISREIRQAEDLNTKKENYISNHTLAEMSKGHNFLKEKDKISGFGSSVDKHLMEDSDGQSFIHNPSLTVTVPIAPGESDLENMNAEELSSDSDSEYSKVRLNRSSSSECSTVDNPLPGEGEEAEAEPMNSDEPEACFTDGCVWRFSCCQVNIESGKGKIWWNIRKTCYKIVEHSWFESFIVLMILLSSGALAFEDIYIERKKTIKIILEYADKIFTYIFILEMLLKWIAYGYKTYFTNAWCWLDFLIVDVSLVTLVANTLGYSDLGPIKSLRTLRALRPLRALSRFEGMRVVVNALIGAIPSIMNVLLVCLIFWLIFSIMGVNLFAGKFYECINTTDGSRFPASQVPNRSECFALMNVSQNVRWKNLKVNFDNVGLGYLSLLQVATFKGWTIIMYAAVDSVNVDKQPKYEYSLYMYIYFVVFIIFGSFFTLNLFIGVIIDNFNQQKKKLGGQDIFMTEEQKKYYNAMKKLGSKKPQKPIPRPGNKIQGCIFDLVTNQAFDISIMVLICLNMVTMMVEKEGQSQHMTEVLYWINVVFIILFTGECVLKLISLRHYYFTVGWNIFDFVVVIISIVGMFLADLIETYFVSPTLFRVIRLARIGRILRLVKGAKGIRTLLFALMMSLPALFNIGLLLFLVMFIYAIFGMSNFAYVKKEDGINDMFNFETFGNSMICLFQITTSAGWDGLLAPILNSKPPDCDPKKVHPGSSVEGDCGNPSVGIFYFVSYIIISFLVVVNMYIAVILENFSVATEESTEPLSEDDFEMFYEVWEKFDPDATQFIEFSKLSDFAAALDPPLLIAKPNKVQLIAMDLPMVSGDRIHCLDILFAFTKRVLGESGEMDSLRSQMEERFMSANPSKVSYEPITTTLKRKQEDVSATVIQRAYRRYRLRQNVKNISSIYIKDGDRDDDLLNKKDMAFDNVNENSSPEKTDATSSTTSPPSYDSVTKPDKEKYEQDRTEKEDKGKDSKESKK
Put plainly: E-VIPR optical membrane potential assay with electrical stimulation. It is filed as cell-based. Particulars: active against one or more sodium channels; assay/subtype not specified in Table 4; read-out: IC50 Binned Activity Data. The text has this: E-VIPR Optical Membrane Potential Assay Method with Electrical Stimulation
Sodium channels are voltage-dependent proteins that can be activated by inducing membrane voltage changes by applying electric fields. The electrical stimulation instrument and methods of use are described in Ion Channel Assay Methods PCT/US01/21652, herein incorporated by reference and are referred to as E-VIPR. The instrument comprises a microtiter plate handler, an optical system for exciting the coumarin dye while simultaneously recording the coumarin and oxonol emissions, a waveform generator, a current- or voltage-controlled amplifier, and a device for inserting electrodes in well. Under integrated computer control, this instrument passes user-programmed electrical stimulus protocols to cells within the wells of the microtiter plate.
24 hours before the assay on E-VIPR, HEK cells expressing human NaV subtype, like NaV 1.7, are seeded in 384-well poly-lysine coated plates at 15,000-20,000 cells per well. Other subtypes are performed in an analogous mode in a cell line expressing the NaV of interest. HEK cells are grown in media (exact composition is specific to each cell type and NaV subtype) supplemented with 10% FBS (Fetal Bovine Serum, qualified; GibcoBRL #16140-071) and 1% Pen-Strep (Penicillin-Streptomycin; GibcoBRL #15140-122). Cells are grown in vented cap flasks, in 90% humidity and 10% CO2, to 100% confluence. They are usually split by trypsinization 1:10 or 1:20, depending on scheduling needs, and grown for 2-3 days before the next split.
• 100 mg/mL Pluronic F-127 (Sigma #P2443), in dry DMSO • Compound Plates: 384-well round bottom plate, e.g. Corning 384-well Polypropylene Round Bottom #3656 • Cell Plates: 384-well tissue culture treated plate, e.g. Greiner #781091-1B • 10 mM DiSBAC6(3) (Aurora #00-100-010) in dry DMSO • 10 mM CC2-DMPE (Aurora #00-100-008) in dry DMSO • 200 mM ABSC1 in H2O
Bath1 buffer. Glucose 10 mM (1.8 g/L), Magnesium Chloride (Anhydrous), 1 mM (0.095 g/L), Calcium Chloride, 2 mM (0.222 g/L), HEPES 10 mM (2.38 g/L), Potassium Chloride, 4.5 mM (0.335 g/L), Sodium Chloride 160 mM (9.35 g/L).
Hexyl Dye Solution: Bath1 Buffer+0.5% β-cyclodextrin (make this prior to use, Sigma #C4767), 8 μM CC2-DMPE+2.5 μM DiSBAC6(3). To make the solution Add volume of 10% Pluronic F127 stock equal to volumes of CC2-DMPE+DiSBAC6(3). The order of preparation is first mix Pluronic and CC2-DMPE, then add DiSBAC6(3) while vortexing, then add Bath1+β-Cyclodextrin.
1) Pre-spot compounds (in neat DMSO) into compound plates. Vehicle control (neat DMSO), the positive control (20 mM DMSO stock tetracaine, 125 μM final in assay) and test compounds are added to each well at 160× desired final concentration in neat DMSO. Final compound plate volume will be 80 μL (80-fold intermediate dilution from 1 μL DMSO spot; 160-fold final dilution after transfer to cell plate). Final DMSO concentration for all wells in assay is 0.625%.
2) Prepare Hexyl Dye Solution.
3) Prepare cell plates. On the day of the assay, medium is aspirated and cells are washed three times with 100 μL of Bath1 Solution, maintaining 25 μL residual volume in each well.
4) Dispense 25 μL per well of Hexyl Dye Solution into cell plates. Incubate for 20-35 minutes at room temp or ambient conditions.
5) Dispense 80 μL per well of Bath1 into compound plates. Acid Yellow-17 (1 mM) is added and Potassium Chloride can be altered from 4.5 to 20 mM depending on the NaV subtype and assay sensitivity.
6) Wash cell plates three times with 100 μL per well of Bath1, leaving 25 μL of residual volume. Then transfer 25 uL per well from Compound Plates to Cell Plates. Incubate for 20-35 minutes at room temp/ambient condition
7) Read Plate on E-VIPR. Use the current-controlled amplifier to deliver stimulation wave pulses for typically 9 seconds and a scan rate of 400 Hz. A pre-stimulus recording is performed for 0.5 seconds to obtain the un-stimulated intensities baseline. […]
As for `COc1cc(C(=O)N2CC[C@]3(c4ccccc4)OCOC3C2)ccc1OCCC(F)(F)F` (stereo partly shown) [Compound 102], the IC50 was at most 2000 nM.

Take `CCOc1nc(C(=O)N2CC[C@]3(c4csc(C)n4)OCOC3C2)ccc1OCCOC(F)(F)F` (stereo partly shown) [Compound 103]: the IC50 was at most 2000 nM.

Take `COc1cc(C(=O)N2CC[C@]3(c4ccccc4)CC3C2)ccc1OCC(C)(C)O` (stereo partly shown) [Compound 104]: the IC50 is at most 2000 nM.

On to `COc1cc(C(=O)N2CC[C@]3(c4ccccn4)OCOC3C2)cc(Cl)c1OCCOC(F)(F)F` (stereo partly shown) [Compound 105], for which the IC50 is at most 2000 nM.

For `CC(F)(F)COc1ccc(C(=O)N2CC[C@]3(c4ccccn4)OCOC3C2)cc1Cl` (stereo partly shown) [Compound 106], the IC50 was at most 2000 nM.

As for `COc1nc(C(=O)N2CC[C@]3(c4ccccn4)OCOC3C2)ccc1OCCOC(F)(F)F` (stereo partly shown) [Compound 107], the IC50 was at most 2000 nM.

As for `O=C(c1ccc(OCCOCC(F)(F)F)c(Cl)c1)N1CC[C@]2(c3ccccn3)OCOC2C1` (stereo partly shown) [Compound 108], the IC50 is at most 2000 nM.

On to `Cc1cc(C(=O)N2CC[C@@]3(c4ccc(F)cc4)OCOC3C2)ccc1OCC(C)(C)F` (stereo partly shown) [Compound 109], for which the IC50 was at most 2000 nM.

Consider `CC(C)(F)COc1ccc(C(=O)N2CC[C@]3(c4ccccn4)OCOC3C2)cc1Cl` (stereo partly shown) [Compound 110], for which the IC50 is at most 2000 nM.

Regarding `COc1nc(C(=O)N2CC[C@]3(c4nccs4)OCOC3C2)ccc1OCCOC(F)(F)F` (stereo partly shown) [Compound 111], the IC50 is at most 2000 nM.

Consider `COc1ccnc(C23CCN(C(=O)c4ccc(OCCOC(F)(F)F)c(OC)c4)CC2OCO3)c1` (stereo not shown) [Compound 112], for which the IC50 is at most 2000 nM.

In the case of `Cc1cc(C(=O)N2CCC3(c4ccccc4)CC3C2)ccc1C(C)(C)O` (stereo not shown) [Compound 113], the IC50 is at most 2000 nM.

In the case of `Cc1cc(C(=O)N2CC[C@@]3(c4ccccc4)C[C@@H]3C2)ccc1OCC(C)(C)O` [Compound 114], the IC50 was at most 2000 nM.

`COc1cc(C(=O)N2CCC3(c4ccccc4)CC3C2)ccc1C(C)(C)CO` (stereo not shown) [Compound 115]: the IC50 is at most 2000 nM.

`O=C(c1ccc(OCCOC(F)(F)F)c(Cl)c1)N1CC[C@@]2(c3ccccn3)COC2C1` (stereo partly shown) [Compound 116]: the IC50 is at most 2000 nM.

Regarding `COc1cc(C(=O)N2CC[C@]3(c4ccccc4)OCOC3C2)ccc1OC(C)C(F)(F)F` (stereo partly shown) [Compound 117], the IC50 was at most 2000 nM.

For the compound `CCOc1nc(C(=O)N2CC[C@]3(c4nccs4)OCOC3C2)ccc1OCCOC(F)(F)F` (stereo partly shown) [Compound 118], the IC50 was at most 2000 nM.

Take `O=C(c1cc2n(n1)C(C(F)(F)F)CC(C1CC1)N2)N1CCC2(c3ccccc3)CC2C1` (stereo not shown) [Compound 119]: the IC50 is at most 2000 nM.

Regarding `Cc1cc(C(=O)N2CC[C@@]3(c4ccccc4)OCOC3C2)ccc1OCC(C)(C)F` (stereo partly shown) [Compound 120], the IC50 is at most 2000 nM.

On to `CC(C)(C)COc1ccc(C(=O)N2CC[C@]3(c4ccccn4)OCOC3C2)cc1Cl` (stereo partly shown) [Compound 121], for which the IC50 was at most 2000 nM.

Consider `COc1cc(C(=O)N2CC[C@@]3(c4ccc(F)cc4)OCOC3C2)ccc1OCCOC(F)(F)F` (stereo partly shown) [Compound 122], for which the IC50 is at most 2000 nM.

Turning to `O=C(c1ccc(OCC(F)(F)C(F)F)c(C(F)(F)F)c1)N1CC[C@]2(c3ccccn3)OCOC2C1` (stereo partly shown) [Compound 123], the IC50 was at most 2000 nM.

`Cc1cc(C(=O)N2CC[C@]3(c4ccc(F)cc4)OCOC3C2)ccc1OCC(C)(C)F` (stereo partly shown) [Compound 124]: the IC50 is at most 2000 nM.

Turning to `COc1nc(C(=O)N2CCC3(c4ccccc4)CC3C2)ccc1OCC(C)(C)F` (stereo not shown) [Compound 125], the IC50 was at most 2000 nM.

With `COc1nc(C(=O)N2CC[C@@]3(c4nccs4)OCOC3C2)ccc1OCCOC(F)(F)F` (stereo partly shown) [Compound 126], the IC50 is at most 2000 nM.

Consider `CC(C)(F)COc1ccc(C(=O)N2CC[C@]3(c4ccccn4)OCO[C@@H]3C2)cc1C(F)(F)F` [Compound 127], for which the half-inhibitory concentration (IC50) was at most 2000 nM.

Turning to `O=C(c1ccc(OCCC(F)(F)F)c(C(F)(F)F)c1)N1CC[C@]2(c3ccccn3)OCOC2C1` (stereo partly shown) [Compound 128], the concentration for half-maximal inhibition (IC50) was at most 2000 nM.

For the compound `Cc1cc(C(=O)N2CC[C@]3(c4ncccc4F)OCOC3C2)ccc1OCCOC(F)(F)F` (stereo partly shown) [Compound 129], the IC50 is at most 2000 nM.

In the case of `COc1nc(C(=O)N2CC[C@]3(c4ccccn4)OCOC3C2)ccc1OCC1(C(F)(F)F)CC1` (stereo partly shown) [Compound 130], the IC50 was at most 2000 nM.

For the compound `COc1cc(C(=O)N2CC[C@]3(c4cccc(Cl)c4)OCOC3C2)ccc1OCCC(F)(F)F` (stereo partly shown) [Compound 131], the IC50 was at most 2000 nM.

`COc1cc(C(=O)N2CC[C@]3(c4ccccc4)OCCOC3C2)ccc1OCCOC(F)(F)F` (stereo partly shown) [Compound 132]: the IC50 was at most 2000 nM.

Turning to `Cc1cc(C(=O)N2CC[C@]3(c4ccccc4)C[C@@H]3C2)ccc1OCC(C)(C)O` [Compound 133], the IC50 was at most 2000 nM.

`Cc1nc(C(=O)N2CCC3(c4ccccc4)CC3C2)ccc1OC(C)C` (stereo not shown) [Compound 134]: the IC50 was at most 2000 nM.

As for `O=C(c1ccc(OCC2CC2(F)F)c(Cl)c1)N1CC[C@]2(c3ccccn3)OCOC2C1` (stereo partly shown) [Compound 135], the IC50 was at most 2000 nM.

For `COc1cc(C(=O)N2CCC3(c4ccccc4)CC3C2)ccc1COCCC(F)(F)F` (stereo not shown) [Compound 136], the 50% inhibitory concentration (IC50) is at most 2000 nM.

On to `CCOc1nc(C(=O)N2CC[C@@]3(c4nccs4)OCOC3C2)ccc1OCCOC(F)(F)F` (stereo partly shown) [Compound 137], for which the IC50 is at most 2000 nM.

Regarding `O=C(c1ccc(OCCOC(F)(F)F)c(Cl)c1)N1CC[C@@]2(c3nccs3)OCOC2C1` (stereo partly shown) [Compound 138], the IC50 is at most 2000 nM.

As to `COc1cc(C(=O)N2CC[C@]3(c4ccccc4)OCOC3C2)ccc1OCC1CC(F)(F)C1` (stereo partly shown) [Compound 139], the IC50 was at most 2000 nM.

Consider `O=C(c1ccc(OCCOC(F)(F)F)c(Cl)c1)N1CC[C@]2(c3nccs3)OCOC2C1` (stereo partly shown) [Compound 140], for which the 50% inhibitory concentration (IC50) is at most 2000 nM.

Consider `COc1cc(C(=O)N2CC[C@]3(c4cccc(Br)n4)OCOC3C2)ccc1OCCOC(F)(F)F` (stereo partly shown) [Compound 141], for which the IC50 is at most 2000 nM.

Turning to `Cc1cc(C(=O)N2CC[C@]3(c4cscn4)OCOC3C2)ccc1OCCOC(F)(F)F` (stereo partly shown) [Compound 142], the IC50 is at most 2000 nM.

As for `O=C(c1cccc2cccnc12)N1CCC2(c3ccccc3)CC2C1` (stereo not shown) [Compound 143], the IC50 is at most 2000 nM.

In the case of `Cc1nc([C@]23CCN(C(=O)c4ccc(OCCOC(F)(F)F)c(C)c4)CC2OCO3)cs1` (stereo partly shown) [Compound 144], the IC50 is at most 2000 nM.

For the compound `O=C(c1ccc(OCCOC(F)(F)F)c(Cl)c1)N1CC[C@]2(c3ncccc3F)OCOC2C1` (stereo partly shown) [Compound 145], the IC50 was at most 2000 nM.

Consider `O=C(c1ccc(OCC2CC(F)(F)C2)c(Cl)c1)N1CC[C@]2(c3ccccn3)OCOC2C1` (stereo partly shown) [Compound 146], for which the IC50 was at most 2000 nM.

In the case of `COc1cc(C(=O)N2CCC3(c4ccccc4)CC3C2)ccc1C(C)(C)O` (stereo not shown) [Compound 147], the IC50 was at most 2000 nM.

For `COc1cc(C(=O)N2CC[C@@]3(c4ccccc4)OCOC3C2)ccc1OCCOC(F)(F)F` (stereo partly shown) [Compound 148], the IC50 is at most 2000 nM.

`Cc1nc([C@]23CCN(C(=O)c4ccc(OCCOC(F)(F)F)c(Cl)c4)CC2OCO3)cs1` (stereo partly shown) [Compound 149]: the IC50 is at most 2000 nM.

As for `COc1cc(C(=O)N2CC[C@]3(c4ccccc4)OCOC3C2)ccc1OCCOC(F)(F)F` (stereo partly shown) [Compound 150], the IC50 was at most 2000 nM.

A word on the IC50: it is the concentration that gives 50% inhibition.
